Data set [1] is described as follows: Pharmacokinetics of indiplon after oral administration of free base or HBr co-crystal suspension. The class given is in vivo, male beagle dogs. Particulars: male dogs; for AUC(0-t) / Cmax / Tmax: single oral dose 5 mg free base/kg, 0.5% methylcellulose suspension. As to the method: The purpose of this study was to determine the pharmacokinetics of indiplon following oral administration of the free base and the HBr co-crystal in a suspension to male beagle dogs.
The test compounds used in the study were the free base and […] of indiplon. The compounds were stored at approximately 2-8° C.
Five male purebred beagles were transferred to the study from a stock colony. Each animal was identified with an individually numbered ear tattoo. The animals were acclimated for 5 days. At the time of dose administration, animals were young adult/adult age. During acclimation and the test period, animals were individually housed in wire-mesh enclosures with coated rod-bottom floors. Animals were not comingled for at least 24 hours after each dose administration to allow monitoring of any test compound-related effects. Animals had access to non-certified Canine Diet #5L03 (PMI Feeds, Inc.) ad libitum, except as specified for dose administration.
The test compounds were prepared in 0.5% methylcellulose. The target concentrations of the free base and HBr salt were 1.0 and 1.34 mg/mL (equivalent to 1 mg of the free base), respectively. The liquid suspensions were administered via oral gavage. Prior to removing the gavage tube, the tube was flushed with approximately 5 mL of water.
Blood (approximately 2 mL) was collected from a jugular vein via syringe and needle and transferred into tubes containing K2EDTA anticoagulant predose and at 0.5, 1, 2, 3, 4, 6, 8, 12, and 24 hours postdose. Blood was maintained on wet ice, in chilled Kryoracks, or at approximately 5° C. prior to centrifugation to obtain plasma. Centrifugation began within 1 hour of collection. Plasma was placed on dry ice prior to storage at approximately −70° C. Plasma samples, remaining test compounds, and remaining dose formulations were shipped on dry ice to the analysis site and stored at approximately −70° C. before and after analysis. Samples were analyzed using an LC/MS/MS method. Plasma concentration-time data for each dog and formulation were analyzed using a noncompartmental model assumption with WinNonlin, version 4.1 (Pharsight Corporation, Mountain View, Calif.). All calculations were based on the nominal times as actual sample collection times departed minimally from the schedule times.

A short description of data set [2]: Plasma pharmacokinetic comparison of zaleplon free base and HCl salt after single oral doses. It counts as in vivo. Particulars: male beagle dogs; for AUC(0-inf) / AUC(0-t) / Cmax / Tmax: male, beagle, dog, plasma, po.
[3] abbreviates: dog CTZBCG, listed as Free Base Suspension.
The mark [4] stands for this setting: dog CUPBEG, listed as Free Base Suspension.
Where [5] appears, read: dog CUVBAT, listed as Free Base Suspension.
[6] abbreviates: Mean, N = 5, listed as HBr Salt Suspension.
The mark [7] stands for this setting: dog CUPBEG, listed as HBr Salt Suspension.
Where [8] appears, read: dog CUVBAT, listed as HBr Salt Suspension.
The mark [9] stands for this setting: dog CVRCVX, listed as HBr Salt Suspension.
Where [10] appears, read: dog CVSCCL, listed as HBr Salt Suspension.
Setting [11] is: 2.5 mg HCl Salt/kg, single oral dose 2.5 mg HCl Salt/kg, Mean of 5 dogs.
[12] abbreviates: 2.5 mg HCl Salt/kg, single oral dose 2.5 mg HCl Salt/kg, dog CLT-2.
The mark [13] stands for this setting: 2.5 mg HCl Salt/kg, single oral dose 2.5 mg HCl Salt/kg, dog H0M004.
[14] abbreviates: 2.5 mg HCl Salt/kg, single oral dose 2.5 mg HCl Salt/kg, dog H1B108.
Setting [15] is: 2.5 mg HCl Salt/kg, single oral dose 2.5 mg HCl Salt/kg, dog TDR2.
The mark [16] stands for this setting: 2.5 mg HCl Salt/kg, single oral dose 2.5 mg HCl Salt/kg, dog TKR-2.
The mark [17] stands for this setting: 5 mg/kg, single oral dose 5.0 mg Free Base/kg, Mean of 5 dogs.
The mark [18] stands for this setting: 5 mg/kg, single oral dose 5.0 mg Free Base/kg, dog CLT-2.
Where [19] appears, read: 5 mg/kg, single oral dose 5.0 mg Free Base/kg, dog H0M004.
The mark [20] stands for this setting: 5 mg/kg, single oral dose 5.0 mg Free Base/kg, dog H1B108.
[21] abbreviates: 5 mg/kg, single oral dose 5.0 mg Free Base/kg, dog TDR2.
The mark [22] stands for this setting: 5 mg/kg, single oral dose 5.0 mg Free Base/kg, dog TKR-2.

The Cmax is the highest concentration seen after dosing. As usually defined, the Tmax is the time from dosing to the highest level. As usually defined, the AUC(0-inf) is the area under the concentration-time curve extrapolated to infinity.

Regarding `CC(=O)N(C)c1cccc(-c2ccnc3c(C(=O)c4cccs4)cnn23)c1` [Indiplon free base, N-methyl-N-{3-[3-(thiophene-2-carbonyl)-pyrazolo[1,5-a]pyrimidin-7-yl]-phenyl}acetamide, reference compound], the AUC(0-t) in data set [1] (Mean, N = 5, listed as Free Base Suspension) was found to be 250 ng·h/mL; in data set [1] (setting [3]), 408 ng·h/mL; in data set [1] (setting [4]) it was 160 ng·h/mL; in data set [1] (setting [5]) it was 125 ng·h/mL; in data set [1] (dog CVSCCL, listed as Free Base Suspension), 277 ng·h/mL; in data set [1] (male, beagle, dog, plasma, po, 5 mg/kg, dog CVRCVX, read-out: AUC0-t) it was 279 ng·h/mL. For the same compound, the Cmax in data set [1] (setting [3]) amounted to 266 ng/mL; in data set [1] (setting [4]) it was 106 ng/mL; in data set [1] (setting [5]), 101 ng/mL; in data set [1] (male, beagle, dog, plasma, po, 5 mg/kg, Mean, N = 5, read-out: Cmax), 185 ng/mL; in data set [1] (male, beagle, dog, plasma, po, 5 mg/kg, dog CVRCVX, read-out: Cmax) it was 212 ng/mL; in data set [1] (male, beagle, dog, plasma, po, 5 mg/kg, dog CVSCCL, read-out: Cmax), 240 ng/mL. Besides, the Tmax in data set [1] (setting [4]) is 60 min; in data set [1] (male, beagle, dog, plasma, po, 5 mg/kg, Mean, N = 5, read-out: Tmax), 36 min; in data set [1] (male, beagle, dog, plasma, po, 5 mg/kg, dog CUVBAT, read-out: Tmax), 30 min; in data set [1] (male, beagle, dog, plasma, po, 5 mg/kg, dog CVRCVX, read-out: Tmax) it was 30 min.
For `CC(=O)N(C)c1cccc(-c2ccnc3c(C(=O)c4cccs4)cnn23)c1` [indiplon HBr, N-methyl-N-{3-[3-(thiophene-2-carbonyl)-pyrazolo[1,5-a]pyrimidin-7-yl]-phenyl}acetamide HBr cocrystal], the “Tmax compared to the free base” value in data set [1] (oral 5 mg free base/kg) is on record as “not remarkably different”. Besides, in data set [1] (oral 5 mg free base/kg), the “increase in the AUC versus free base” value turned out to be 226.8%. For the same compound, the “increase in the maximum plasma concentrations achieved (Cmax) versus free base” value in data set [1] (oral 5 mg free base/kg) turned out to be 69.7%. In addition, in data set [1] (oral 5 mg free base/kg, cross-over), the “test animals with pharmaceutical profile superior to the corresponding free base” value is 5 out of 5. For the same compound, the AUC(0-t) came out at 567 ng·h/mL in data set [1] (setting [6]); 1130 ng·h/mL in data set [1] (dog CTZBCG, listed as HBr Salt Suspension); 429 ng·h/mL in data set [1] (setting [7]); 291 ng·h/mL in data set [1] (setting [8]); 258 ng·h/mL in data set [1] (setting [9]); 725 ng·h/mL in data set [1] (setting [10]). Besides, the Cmax in data set [1] (setting [6]) came to 314 ng/mL; in data set [1] (setting [7]), 253 ng/mL; in data set [1] (setting [8]) it was 309 ng/mL; in data set [1] (setting [9]), 227 ng/mL; in data set [1] (setting [10]) it was 270 ng/mL; in data set [1] (male, beagle, dog, plasma, po, 5 mg/kg, dog CTZBCG, read-out: Cmax), 513 ng/mL. The Tmax in data set [1] (setting [6]) is 48 min; in data set [1] (setting [10]), 120 min; in data set [1] (male, beagle, dog, plasma, po, 5 mg/kg, dog CTZBCG, read-out: Tmax), 30 min; in data set [1] (male, beagle, dog, plasma, po, 5 mg/kg, dog CUPBEG, read-out: Tmax), 30 min.
Regarding `CCN(C(C)=O)c1cccc(-c2ccnc3c(C#N)cnn23)c1.Cl` [zaleplon HCl, Zaleplon Hydrochloride], the “Cmax compared with the free base” value in data set [2] (oral, calculated on a mg/kg dosing basis) is on record as “essentially equivalent”. Moreover, the total exposure AUC(0-inf) in data set [2] (setting [11]) was determined as 2320 ng·h/mL; in data set [2] (setting [12]), 1820 ng·h/mL; in data set [2] (setting [13]), 2010 ng·h/mL; in data set [2] (setting [14]), 1360 ng·h/mL; in data set [2] (setting [15]) it was 2650 ng·h/mL; in data set [2] (setting [16]), 3760 ng·h/mL. The AUC(0-t) in data set [2] (setting [11]) is 2310 ng·h/mL; in data set [2] (setting [12]), 1820 ng·h/mL; in data set [2] (setting [13]) it was 2010 ng·h/mL; in data set [2] (setting [14]), 1360 ng·h/mL; in data set [2] (setting [15]) it was 2650 ng·h/mL; in data set [2] (setting [16]), 3720 ng·h/mL. Also, the peak concentration (Cmax) in data set [2] (setting [11]) worked out at 790 ng/mL; in data set [2] (setting [12]), 1010 ng/mL; in data set [2] (setting [13]) it was 642 ng/mL; in data set [2] (setting [14]), 587 ng/mL; in data set [2] (setting [15]), 820 ng/mL; in data set [2] (setting [16]), 896 ng/mL. Further, the Tmax in data set [2] (setting [11]) was 33 min; in data set [2] (setting [12]), 15 min; in data set [2] (setting [13]) it was 30 min; in data set [2] (setting [14]) it was 60 min; in data set [2] (setting [15]), 30 min; in data set [2] (setting [16]), 30 min.
On to `CCN(C(C)=O)c1cccc(-c2ccnc3c(C#N)cnn23)c1` [zaleplon free base, N-[3-(3-cyanopyrazolo[1,5-a]pyrimidin-7-yl)phenyl]-N-ethylacetamide, reference compound], for which the Tmax in data set [2] (5 mg Free Base/kg, single oral dose 5.0 mg Free Base/kg, Mean of 5 dogs) turned out to be 66 min; in data set [2] (setting [18]) it was 60 min; in data set [2] (setting [19]) it was 60 min; in data set [2] (setting [20]), 120 min; in data set [2] (setting [21]), 30 min; in data set [2] (setting [22]) it was 60 min. Moreover, the AUC(0-inf) stood at 6940 ng·h/mL in data set [2] (setting [17]); 6860 ng·h/mL in data set [2] (setting [18]); 7000 ng·h/mL in data set [2] (setting [19]); 3760 ng·h/mL in data set [2] (setting [20]); 2550 ng·h/mL in data set [2] (setting [21]); 14500 ng·h/mL in data set [2] (setting [22]). Further, the AUC(0-t) in data set [2] (setting [17]) is 6700 ng·h/mL; in data set [2] (setting [18]) it was 6840 ng·h/mL; in data set [2] (setting [19]), 6930 ng·h/mL; in data set [2] (setting [20]), 3760 ng·h/mL; in data set [2] (setting [21]), 2550 ng·h/mL; in data set [2] (setting [22]), 13400 ng·h/mL. Moreover, the Cmax was found to be 1590 ng/mL in data set [2] (setting [17]); 1850 ng/mL in data set [2] (setting [18]); 1460 ng/mL in data set [2] (setting [19]); 926 ng/mL in data set [2] (setting [20]); 1100 ng/mL in data set [2] (setting [21]); 2630 ng/mL in data set [2] (setting [22]).

These data come from patent US20080045547A1, “Salts And Co-Crystals of Pyrazolopyrimidine Compounds, Compositions Thereof And Methods For Their Production And Use” (priority 2006, published 2008).
